Assays:
Assay in all cases: relative viability (nuclei count vs DMSO), 5 days (fraction); higher = more cells survive
XMD8-85 + Lapatinib = compound: CN1CCN(CC1)C2=CC(=C(C=C2)NC3=NC=C4C(=N3)N(C5=CC=CC=C5C(=O)N4C)C)OC [XMD8-85] + CS(=O)(=O)CCNCc1ccc(-c2ccc3ncnc(Nc4ccc(OCc5cccc(F)c5)c(Cl)c4)c3c2)o1 [Lapatinib] (partner 2 µM)
How it was run: (§1)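 Values are medians from duplicate plates. Each reflects relative viability, defined as the nuclei count of treated wells over that of vehicle wells. Lung cancer cell lines in 1536-well plates were pin-tool dosed one day after seeding with one drug alone or with a fixed anchor-drug dose plus five library-drug doses (not always all listed) in √10 steps, then fixed, stained and imaged at 4× after 5 days.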

4EGI-1 + Tozasertib = compound: O=C(O)C(Cc1ccccc1[N+](=O)[O-])=NNc1nc(-c2ccc(Cl)c(Cl)c2)cs1 (mixture of isomers) [4EGI-1] + Cc1cc(Nc2cc(N3CCN(C)CC3)nc(Sc3ccc(NC(=O)C4CC4)cc3)n2)n[nH]1 [Tozasertib] (partner 0.1 µM)
How it was run: as §1

4EGI-1 + Decitabine = compound: O=C(O)C(Cc1ccccc1[N+](=O)[O-])=NNc1nc(-c2ccc(Cl)c(Cl)c2)cs1 (mixture of isomers) [4EGI-1] + Nc1ncn([C@H]2C[C@H](O)[C@@H](CO)O2)c(=O)n1 [Decitabine] (partner 2 µM)
How it was run: as §1

XMD8-85 + Olaparib = compound: CN1CCN(CC1)C2=CC(=C(C=C2)NC3=NC=C4C(=N3)N(C5=CC=CC=C5C(=O)N4C)C)OC [XMD8-85] + O=C(c1cc(Cc2n[nH]c(=O)c3ccccc23)ccc1F)N1CCN(C(=O)C2CC2)CC1 [Olaparib] (partner 8 µM)
How it was run: as §1

Row | Cell Line | relative viability (XMD8-85 + Lapatinib; first compound 0.08 µM) | relative viability (XMD8-85 + Lapatinib; first compound 0.253 µM) | relative viability (XMD8-85 + Lapatinib; first compound 0.8 µM) | relative viability (XMD8-85 + Lapatinib; first compound 2.53 µM) | relative viability (XMD8-85 + Lapatinib; first compound 8 µM) | relative viability (4EGI-1 + Tozasertib; first compound 0.5 µM) | relative viability (4EGI-1 + Tozasertib; first compound 1.581 µM) | relative viability (4EGI-1 + Tozasertib; first compound 5 µM) | relative viability (4EGI-1 + Tozasertib; first compound 15.81 µM) | relative viability (4EGI-1 + Tozasertib; first compound 50 µM) | relative viability (4EGI-1 + Decitabine; first compound 0.5 µM) | relative viability (4EGI-1 + Decitabine; first compound 5 µM) | relative viability (4EGI-1 + Decitabine; first compound 50 µM) | relative viability (XMD8-85 + Olaparib; first compound 0.08 µM) | relative viability (XMD8-85 + Olaparib; first compound 0.253 µM) | relative viability (XMD8-85 + Olaparib; first compound 0.8 µM) | relative viability (XMD8-85 + Olaparib; first compound 2.53 µM) | relative viability (XMD8-85 + Olaparib; first compound 8 µM) | relative viability (4EGI-1 + Decitabine; first compound 1.581 µM) | relative viability (4EGI-1 + Decitabine; first compound 15.81 µM)
1 | H3255 | 0.26 | 0.237 | 0.233 | 0.243 | 0.167 | 0.789 | 0.43 | 0.726 | 0.571 | 0.551 | 0.684 | 0.638 | 0.594 | 0.581 | 0.603 | 0.512 | 0.504 | 0.369 |  | 
2 | UMC-11 | 0.835 | 0.853 | 1.17 | 0.976 | 0.724 | 0.192 | 0.198 | 0.203 | 0.201 | 0.21 | 0.731 | 0.685 | 0.419 | 0.475 | 0.358 | 0.389 | 0.325 | 0.231 | 0.609 | 0.624
3 | NCI-H727 | 0.627 | 0.792 |  | 0.731 | 0.543 | 0.595 | 0.765 | 0.502 | 0.499 | 0.585 | 0.731 | 0.858 | 0.606 | 0.684 | 0.674 | 0.867 | 0.725 | 0.684 | 0.854 | 0.808
4 | NCI-H460 | 0.551 | 0.84 | 1.27 | 1.29 | 0.406 | 0.538 |  | 0.45 | 0.144 | 0.314 | 0.562 | 0.476 | 0.0663 | 0.284 | 0.448 | 0.435 | 0.35 | 0.213 | 0.246 | 0.188
5 | NCI-H1793 | 0.845 | 0.826 | 0.857 | 0.781 | 0.814 | 0.318 | 0.364 | 0.391 | 0.247 | 0.2 | 0.557 | 0.442 | 0.238 |  | 0.574 | 0.71 | 1.02 | 0.66 | 0.333 | 0.427
6 | LXF-289 | 0.887 | 0.855 | 0.892 | 0.903 | 0.818 | 0.203 | 0.22 | 0.204 | 0.151 | 0.168 | 0.436 | 0.391 | 0.287 | 0.972 | 1.08 | 1.09 | 0.94 | 0.915 | 0.346 | 0.359
7 | NCI-H1944 | 0.784 | 0.733 | 0.897 | 1.02 | 0.702 | 0.262 |  | 0.241 | 0.192 | 0.202 | 0.502 | 0.427 | 0.344 | 0.39 | 0.393 | 0.44 | 0.402 | 0.338 |  | 0.404
8 | NCI-H23 | 0.949 | 1.05 | 1.09 | 1.08 | 0.969 | 0.393 |  | 0.471 | 0.382 | 0.214 | 0.331 | 0.337 | 0.2 | 0.313 | 0.308 | 0.302 | 0.282 | 0.254 |  | 0.45
9 | LK-2 | 0.691 | 0.994 | 0.771 | 0.552 | 0.653 | 0.193 |  | 0.199 | 0.151 | 0.151 | 0.273 | 0.318 | 0.166 | 0.802 | 0.815 | 0.555 | 0.669 | 0.448 |  | 0.315
10 | NCI-H358 | 0.438 | 0.52 | 0.455 | 0.486 | 0.405 | 0.102 | 0.117 | 0.102 | 0.102 | 0.0781 | 0.218 | 0.189 | 0.115 | 0.508 | 0.565 | 0.625 | 0.691 | 0.445 | 0.203 | 0.138
11 | NCI-H647 | 1.08 | 1.09 | 1.24 | 1.48 | 0.638 | 0.262 |  | 0.35 | 0.199 | 0.133 | 0.433 | 0.391 | 0.155 | 0.573 | 0.378 | 0.605 | 0.408 | 0.118 | 0.309 | 0.218
12 | COR-L 105 | 0.366 | 0.341 | 0.407 | 0.342 | 0.348 | 0.369 | 0.343 | 0.343 | 0.286 | 0.366 | 0.681 | 0.587 | 0.523 | 0.7 |  | 0.692 | 0.58 | 0.455 | 0.558 | 0.472
13 | A-427 | 1.05 | 0.994 | 1.09 | 1.1 | 0.937 | 0.192 | 0.195 | 0.189 | 0.205 | 0.0979 | 0.575 | 0.592 | 0.336 | 0.751 | 0.781 | 0.864 | 0.785 | 0.57 |  | 0.513
14 | NCI-H1734 | 1.05 | 0.977 | 1.03 | 1.17 | 0.987 | 0.263 | 0.27 | 0.263 | 0.288 | 0.214 | 0.569 | 0.519 | 0.29 | 0.672 | 0.616 | 0.629 |  | 0.508 | 0.535 | 0.463
15 | PC-3 [JPC-3] | 0.405 | 0.466 | 0.477 | 0.492 | 0.422 | 0.881 | 0.863 | 0.825 |  | 0.711 | 0.95 | 0.771 | 0.53 | 1.11 | 1.22 | 1.25 | 1.16 | 0.978 |  | 0.498
16 | LCLC-97TM1 | 0.703 | 0.931 | 0.859 | 1.02 | 1.15 | 0.231 | 0.184 | 0.215 | 0.219 | 0.102 | 0.278 | 0.23 | 0.124 | 0.433 | 0.285 | 0.359 | 0.477 | 0.201 |  | 0.248
17 | HCC-366 | 0.94 | 1.12 | 1.09 | 0.994 | 1.06 | 0.131 | 0.0938 | 0.0608 | 0.0943 | 0.0321 | 0.364 | 0.549 | 0.0833 | 0.231 | 0.358 | 0.385 |  | 0.242 | 0.29 | 0.256
